Assays:
[1] = system: Thorne soybean half-seed explants; assay: Agrobacterium-mediated transformation and regeneration of half-seed explants from seeds soaked in BAP; conditions: for Initial Transformation Efficiency (ITE; %): ITE = no. of Liberty-resistant R0 events/no. of explants infected
Description: Mature Thorne soybean seeds were surface-sterilized for 16 hrs using chlorine gas, which was produced by mixing 3.5 ml of 12 N HCl with 100 ml of commercial bleach (5.25% sodium hypochloride) (Di et al., Plant Cell Rep. 15: 746-750 (1996)). […] The seeds were then split by cutting longitudinally along the hilums to separate the cotyledons, and the seed coats, primary shoots, and embryonic axes were removed, thereby generating half-seed explants. The half-seed explants were co-cultivated with A. tumefaciens for five days in the light. […]
About 50-100 half-seed explants were inoculated with 30 ml of Agrobacterium suspension culture in a 20×100 mm Petri dish at RT for 30 min. After inoculation, half-seed explants were transferred to co-cultivation medium lined with filter paper (6 explants per plate; flat side of explant in contact with filter paper) (see Table II). Co-cultivation was carried out for five days at 24° C. with 18 hr photoperiod at 140 μmoles sec^−1m^−2 light intensity.
(§1) After co-cultivation, the half-seed explants were washed in liquid shoot induction (SI) medium (see Table III). The explants were cultured on shoot induction medium solidified with 0.7% agar in the absence of selection. The base of the explant (i.e., the part of the explant from where the embryonic axis was removed) was embedded in the medium, facing upwards. […] Shoot induction was carried out in a Percival Biological Incubator at 24° C. with an 18-hr photoperiod at 140 μmoles sec^−1m^−2 light intensity. After 14 days, the explants were transferred to fresh shoot induction medium containing 6 mg/l glufosinate. After four weeks of culture on shoot induction medium, explants were transferred to shoot elongation (SE) medium containing 6 mg/l glufosinate (see Table IV). Two to four weeks later, elongated shoots (>2.5 cm) were dipped in sterile IBA (1 mg/l) and then transferred to rooting medium (see Table V) without glufosinate. After two weeks, agar medium was rinsed off of the rooted plantlets with water, and the rooted plantlets were transplanted to soil (Redi-Earth, Peat-Lite Mix, Scotts-Sierra Horticultural Products Company, Marysville, Ohio) in jiffy pots. The plant (R0) was grown at 24° C. with an 18-hr photoperiod for one-two weeks and then transferred to the greenhouse.
R0 plants with two trifoliates were screened using the herbicide paint assay to identify putative transformants that expressed the bar gene. The upper surface of a leaf was painted with 150 mg/l glufosinate (herbicide Liberty®, AgrEvo, U.S.A.) along the midrib using a cotton bud. Plants were scored based on the tolerance of the leaf tissue to glufosinate at three-five days after painting. Glufosinate-resistant R0 plants were grown in the greenhouse until maturity and seeds were harvested. Subsequently, seeds from R0 plants were sown and progeny-tested to confirm the presence of the transgene in the R1 generation by spraying two-week-old seedlings with 200 mg/l glufosinate. Plants were scored one week after spraying. Thirty-two transgenic events were confirmed in the R1 progeny by spraying with 200 mg/l glufosinate using herbicide Liberty. […] Plants were fertile and produced seed.
After five days of co-cultivation, half-seed explants infected with pTF102 were assayed for transient GUS blue expression to verify T-DNA transfer. The explants were incubated overnight in 5-bromo-4-chloro-3-indolyl glucuronide (X-gluc) solution at 37° C. (Jefferson et al., EMBO J 6: 3901-3907 (1987)). After staining, the explants were de-stained with 70% ethanol to improve contrast. The incidence of GUS activity was determined based on the presence of blue-staining areas. In addition, stable GUS expression was determined after 28 days on regeneration medium or on R0 plants. The transgenic nature of the soybean plants was also confirmed in the R0 or R1 generation by histochemical GUS assay.

[2] = system: soybean half-seed explants; assay: Shoot induction on half-seed explants with BAP added to shoot induction medium; conditions: BAP 15-100 μM in shoot induction medium, compared to no treatment or 2.5-7.5 μM
Description: as §1

c1ccc(CNc2ncnc3nc[nH]c23)cc1 [BAP, 6-benzylaminopurine]
Freq. GUS blue (on the section of explant where shoots were induced) ([1]; seeds soaked in 7.5 μM BAP): (10%) | Freq. GUS blue (on the section of explant where shoots were induced), count ([1]; seeds soaked in 7.5 μM BAP): 1/10 | No. of Liberty-resistant R0 plants ([1]; seeds soaked in 7.5 μM BAP): 0 | Reg. Freq. (%) (regeneration frequency at first shoot induction stage) ([1]; seeds soaked in 7.5 μM BAP): (8) % | Reg. Freq. (regeneration frequency at first shoot induction stage), explants count ([1]; seeds soaked in 7.5 μM BAP): 4/50 | Initial Transformation Efficiency (ITE; %) ([1]; seeds soaked in 7.5 μM BAP): 0.0% | Freq. GUS blue (on the section of explant where shoots were induced) ([1]; seeds soaked in 15 μM BAP): (20%) | Freq. GUS blue (on the section of explant where shoots were induced), count ([1]; seeds soaked in 15 μM BAP): 2/10 | No. of Liberty-resistant R0 plants ([1]; seeds soaked in 15 μM BAP): 3 | Reg. Freq. (%) (regeneration frequency at first shoot induction stage) ([1]; seeds soaked in 15 μM BAP): (48) % | Reg. Freq. (regeneration frequency at first shoot induction stage), explants count ([1]; seeds soaked in 15 μM BAP): 24/50 | Initial Transformation Efficiency (ITE; %) ([1]; seeds soaked in 15 μM BAP): 6.0% | Freq. GUS blue (on the section of explant where shoots were induced) ([1]; seeds soaked in 30 μM BAP): (90%) | Freq. GUS blue (on the section of explant where shoots were induced), count ([1]; seeds soaked in 30 μM BAP): 9/10 | No. of Liberty-resistant R0 plants ([1]; seeds soaked in 30 μM BAP): 2 | Reg. Freq. (%) (regeneration frequency at first shoot induction stage) ([1]; seeds soaked in 30 μM BAP): (58) % | Reg. Freq. (regeneration frequency at first shoot induction stage), explants count ([1]; seeds soaked in 30 μM BAP): 29/50 | Initial Transformation Efficiency (ITE; %) ([1]; seeds soaked in 30 μM BAP): 4.0% | Freq. GUS blue (on the section of explant where shoots were induced) ([1]; seeds soaked in 50 μM BAP): (67%) | Freq. GUS blue (on the section of explant where shoots were induced), count ([1]; seeds soaked in 50 μM BAP): 6/9 | No. of Liberty-resistant R0 plants ([1]; seeds soaked in 50 μM BAP): 0 | Reg. Freq. (%) (regeneration frequency at first shoot induction stage) ([1]; seeds soaked in 50 μM BAP): (46) % | Reg. Freq. (regeneration frequency at first shoot induction stage), explants count ([1]; seeds soaked in 50 μM BAP): 23/50 | Initial Transformation Efficiency (ITE; %) ([1]; seeds soaked in 50 μM BAP): 0.0% | shoot formation (regeneration frequency) [2]: enhanced shoot formation
